Reference: ChEMBL document CHEMBL1201862, “PubChem BioAssay data set” (2004)
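Dose response: 5 concentrations. Exposure: 48 h. Format: 96-well plates. Endpoint: linear interpolation; highest concentration if not reached. At the GI50, growth is halved.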 The source made the active and inactive calls. Cut-off read from the data, not from the text of the source: active = GI50 up to about 1.1 µM and inactive = higher.

Key:
Assay in all cases: NCI-60 cell line screen, 48 h
COLO 205 = system: COLO 205
DU-145 = system: DU-145
HCC 2998 = system: HCC 2998
K562 = system: K562
MOLT-4 = system: MOLT-4
NCI-H226 = system: NCI-H226
RPMI-8226 = system: RPMI-8226
SK-MEL-28 = system: SK-MEL-28
SK-MEL-2 = system: SK-MEL-2
SK-MEL-5 = system: SK-MEL-5
SK-OV-3 = system: SK-OV-3
SNB-75 = system: SNB-75
SW-620 = system: SW-620
UACC-62 = system: UACC-62
LOX IMVI = system: LOX IMVI
NCI-H522 = system: NCI-H522
TK-10 = system: TK-10
UACC-257 = system: UACC-257
MCF7 = system: MCF7

Measured: GI50

O=C1CCCCC1=C(I)I
inactive: COLO 205 15.3 µM | DU-145 19.7 µM | HCC 2998 15.8 µM | K562 16 µM | MOLT-4 17.9 µM | NCI-H226 19.7 µM | RPMI-8226 15.1 µM | SK-MEL-28 17 µM | SK-MEL-2 16.7 µM | SK-MEL-5 17.9 µM | SK-OV-3 22.6 µM | SNB-75 18.5 µM | SW-620 17.4 µM | UACC-62 17.1 µM

COc1cc(C(C#N)NNc2nc(C)cc(O)n2)cc(OC)c1OC (configuration not stated)
inactive: COLO 205 > 100 µM | K562 > 100 µM | LOX IMVI > 100 µM | NCI-H226 > 100 µM | NCI-H522 > 100 µM | RPMI-8226 > 100 µM | SK-MEL-28 > 100 µM | SK-MEL-2 > 100 µM | SK-MEL-5 > 100 µM | SK-OV-3 > 100 µM | SNB-75 37.2 µM | SW-620 > 100 µM | TK-10 > 100 µM | UACC-257 > 100 µM | UACC-62 > 100 µM

COC(=O)/C(=N\NC(=S)NN)C(C(=O)OC)C(=O)C(=O)Nc1cccc(C(F)(F)F)c1 (configuration not stated)
inactive: HCC 2998 > 100 µM | LOX IMVI > 100 µM | MCF7 > 100 µM | NCI-H226 > 100 µM | NCI-H522 > 100 µM | RPMI-8226 > 100 µM | SK-MEL-28 49.3 µM | SK-MEL-2 > 100 µM | SK-MEL-5 > 100 µM | SK-OV-3 > 100 µM | SNB-75 > 100 µM | SW-620 > 100 µM | TK-10 > 100 µM | UACC-257 > 100 µM | UACC-62 > 100 µM

CC(C)=C[C@H]1CCC2(OCCO2)[C@]1(C)COCc1ccccc1
inactive: COLO 205 17.6 µM | HCC 2998 16.4 µM | LOX IMVI 17.2 µM | MCF7 41.3 µM | MOLT-4 13.8 µM | NCI-H226 14.1 µM | NCI-H522 29 µM | RPMI-8226 18.2 µM | SK-MEL-28 60.5 µM | SK-MEL-2 25.5 µM | SK-MEL-5 16.3 µM | SK-OV-3 32.4 µM | SNB-75 45.4 µM | SW-620 29.1 µM | TK-10 40.7 µM | UACC-257 16.4 µM

CCCNC(=O)Cn1c2c(c3ccccc31)CCCC2
inactive: COLO 205 > 100 µM | HCC 2998 75.5 µM | K562 73.1 µM | LOX IMVI > 100 µM | MCF7 > 100 µM | MOLT-4 43.6 µM | RPMI-8226 40.7 µM | SK-MEL-28 88.9 µM | SK-MEL-2 > 100 µM | SK-MEL-5 33.7 µM | SK-OV-3 94.8 µM | SW-620 55.6 µM | TK-10 > 100 µM | UACC-257 94 µM | UACC-62 45.4 µM

Cc1ccc2c(c1)-c1nc(N)c(C#N)c(-c3ccccc3)c1CCS2(=O)=O
inactive: COLO 205 > 100 µM | DU-145 65.2 µM | HCC 2998 > 100 µM | K562 > 100 µM | LOX IMVI > 100 µM | NCI-H226 24.3 µM | NCI-H522 39.2 µM | RPMI-8226 > 100 µM | SK-MEL-28 > 100 µM | SK-MEL-2 45.8 µM | SK-MEL-5 > 100 µM | SNB-75 24.4 µM | SW-620 > 100 µM | TK-10 23.7 µM | UACC-257 44.9 µM | UACC-62 49.7 µM

O=C(COc1ccccc1Cl)N1N=C(c2ccc(Cl)cc2)CC1(O)c1ccccc1 (configuration not stated)
inactive: COLO 205 > 100 µM | HCC 2998 > 100 µM | K562 > 100 µM | LOX IMVI > 100 µM | MOLT-4 > 100 µM | NCI-H226 > 100 µM | NCI-H522 > 100 µM | RPMI-8226 > 100 µM | SK-MEL-28 > 100 µM | SK-MEL-2 > 100 µM | SK-OV-3 > 100 µM | SNB-75 > 100 µM | SW-620 > 100 µM | TK-10 > 100 µM | UACC-257 > 100 µM | UACC-62 > 100 µM
